Values quoted from earlier work, collected in patent US20140134693A1, “Eliminating the Need of Acidification in Bioethanol Production” (Anitox Corporation, priority 2012, published 2014).
Where two headings read alike, the source gives them in different places.

Tests used:
[1] = tested on: Lactobacillus; details: 600 mg/L
[2] = tested on: Lactobacillus
[3] = tested on: bacteria; details: sugarcane ethanol production
[4] = tested on: Most bacteria, with the exception of Lactobacillus casei; details: ethanol fermentation process

For `O=C(O)CCC(=O)O` [Succinic acid], the “reduction of Lactobacillus levels” value [1] is listed as 78% and the “reduction of Lactobacillus levels” value ([1]; in the presence of ethanol) is listed as “up to 96%”.
In the case of `NC(N)=O.OO` [Urea hydrogen peroxide], the “bactericidal activity against Lactobacillus (in words)” value [2] is given as “excellent bactericidal activity”.
In the case of `CC1(C)S[C@@H]2[C@H](NC(=O)[C@H](N)c3ccccc3)C(=O)N2[C@H]1C(=O)O` [ampicillin], the bacteria resistant [3] is listed as 97%.
For `OO` [hydrogen peroxide], the concentration controlling bacteria [4] is given as 1 to 10 mM.
For penicillin, the bacteria resistant [3] is listed as 97%.
In the case of virginiamycin, the bacteria resistant [3] is given as 48%.
